Columns and labels:
Assay in all cases: relative viability (nuclei count vs DMSO), 5 days (fraction); higher = more cells survive
[1] = compound: CC1=C(CC(=O)O)c2cc(F)ccc2/C1=C\c1ccc([S+](C)[O-])cc1 [Sulindac] + CS(=O)(=O)CCNCc1ccc(-c2ccc3ncnc(Nc4ccc(OCc5cccc(F)c5)c(Cl)c4)c3c2)o1 [Lapatinib] (partner 2 µM)
Method in brief: (§1)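 Each reported value is a median over duplicate plates. It expresses relative viability: treated-well nuclei count divided by vehicle-well nuclei count. Lung cancer cell lines in 1536-well plates were dosed by pin tool a day after seeding, alone with one drug or with a fixed anchor-drug dose plus five library-drug doses (not always all listed) in √10 steps, and nuclei were counted after 5 days.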

[2] = compound: O=c1[nH]cc(F)c(=O)[nH]1 [5-Fluorouracil] + COc1cccc2cc(-c3nc([C@H]4CC[C@H](C(=O)O)CC4)n4ncnc(N)c34)[nH]c12 [OSI-027] (partner 0.5 µM)
Method in brief: as §1

[3] = compound: CC1=C(CC(=O)O)c2cc(F)ccc2/C1=C\c1ccc([S+](C)[O-])cc1 [Sulindac] + CCNC(=O)c1noc(-c2cc(C(C)C)c(O)cc2O)c1-c1ccc(CN2CCOCC2)cc1 [Luminespib] (partner 0.01 µM)
Method in brief: as §1

[4] = compound: CN[C@@H]1C[C@H]2O[C@@](C)([C@@H]1OC)n1c3ccccc3c3c4c(c5c6ccccc6n2c5c31)C(=O)NC4 [Staurosporine] + CC1(C)CCC(c2ccc(Cl)cc2)=C(CN2CCN(c3ccc(C(=O)NS(=O)(=O)c4ccc(N[C@H](CCN5CCOCC5)CSc5ccccc5)c(S(=O)(=O)C(F)(F)F)c4)cc3)CC2)C1 [Navitoclax] (partner 0.5 µM)
Method in brief: as §1

Cell Line | relative viability ([1]; first compound 0.08 µM) | relative viability ([1]; first compound 0.253 µM) | relative viability ([1]; first compound 0.8 µM) | relative viability ([1]; first compound 2.53 µM) | relative viability ([1]; first compound 8 µM) | relative viability ([2]; first compound 0.02 µM) | relative viability ([2]; first compound 0.2 µM) | relative viability ([2]; first compound 0.6325 µM) | relative viability ([2]; first compound 2 µM) | relative viability ([3]; first compound 0.08 µM) | relative viability ([3]; first compound 0.253 µM) | relative viability ([3]; first compound 0.8 µM) | relative viability ([3]; first compound 2.53 µM) | relative viability ([3]; first compound 8 µM) | relative viability ([4]; first compound 0.005 µM) | relative viability ([4]; first compound 0.05 µM) | relative viability ([4]; first compound 0.1581 µM) | relative viability ([4]; first compound 0.5 µM) | relative viability ([4]; first compound 0.01581 µM)
PC-3 [JPC-3] | 0.476 | 0.453 | 0.422 | 0.457 | 0.449 | 0.824 | 0.805 | 0.726 | 0.625 | 0.663 | 0.799 | 0.528 | 0.656 | 0.771 | 0.933 | 0.552 | 0.485 | 0.406 | –
NCI-H1944 | 0.882 | 0.906 | 0.696 | 0.842 | 0.885 | 0.48 | 0.423 | 0.296 | 0.188 | 0.753 | 0.838 | 0.706 | 0.864 | 0.963 | 1.08 | 0.763 | 0.562 | 0.359 | –
NCI-H2085 | 0.746 | 0.693 | 0.668 | 0.69 | 0.777 | 0.69 | 0.676 | 0.771 | 0.502 | 0.39 | 0.414 | 0.426 | 0.428 | 0.36 | 0.757 | 0.541 | 0.415 | 0.366 | 0.583
NCI-H1792 | 1.13 | 0.982 | – | 0.947 | 1.12 | 0.838 | 0.602 | 0.317 | 0.222 | 0.409 | 0.475 | – | 0.384 | 0.627 | 0.735 | 0.197 | – | 0.136 | 0.473
NCI-H2347 | 0.986 | 0.95 | 0.694 | 0.85 | 1.06 | 0.939 | 0.322 | 0.298 | 0.329 | 0.302 | 0.478 | – | 0.411 | 0.519 | 0.854 | 0.274 | 0.284 | 0.225 | 0.524
201T | 1.05 | 0.974 | 1.04 | 0.997 | 1.07 | 0.964 | 0.274 | 0.161 | 0.128 | 1.13 | 1.09 | 1.07 | 1.04 | 1.09 | 1.24 | 1.06 | 0.983 | 0.761 | 1.18
NCI-H1755 | 1.34 | 1.04 | 0.912 | 1.06 | 1.19 | 0.703 | 0.702 | 0.389 | 0.264 | 0.546 | 0.829 | 0.399 | 0.536 | 0.486 | 1.01 | 0.253 | 0.185 | 0.138 | 0.633
NCI-H647 | 1.22 | 1.13 | 0.651 | 1.38 | 1.32 | 0.616 | 0.724 | 0.464 | 0.378 | 0.187 | 0.125 | 0.169 | 0.122 | 0.134 | 0.728 | 0.291 | 0.0554 | 0.0386 | 0.142
NCI-H1650 | 1.01 | 0.775 | 0.625 | 0.824 | 0.944 | 0.515 | 0.496 | 0.383 | 0.349 | 0.201 | 0.197 | – | 0.192 | 0.211 | 0.63 | 0.29 | 0.192 | 0.116 | 0.493
NCI-H1355 | 1.16 | 1.05 | 0.881 | 0.956 | 1.13 | 0.465 | 0.4 | 0.274 | 0.268 | 0.612 | 0.668 | – | 0.601 | 0.702 | 0.975 | 0.249 | 0.28 | 0.217 | 0.549
NCI-H1975 | 1.27 | 1.03 | – | 0.952 | 1.01 | 0.793 | 0.793 | 0.417 | 0.26 | 0.189 | 0.205 | 0.159 | 0.174 | 0.267 | 0.611 | 0.286 | 0.215 | 0.132 | 0.297
BEN | 0.785 | 0.714 | 0.695 | 0.754 | 0.995 | 0.303 | 0.312 | 0.315 | 0.326 | 0.23 | 0.373 | 0.597 | 0.472 | 0.326 | 0.0665 | 0.0865 | 0.0456 | 0.042 | 0.0904
NCI-H322M | 0.632 | 0.626 | 0.523 | 0.565 | 0.561 | 0.534 | 0.563 | 0.486 | 0.449 | 0.887 | 0.819 | 0.644 | 0.848 | 0.881 | 1.36 | 0.771 | 0.586 | 0.462 | 1.15
SK-MES-1 | 0.517 | 0.497 | 0.362 | 0.372 | 0.486 | 0.577 | 0.367 | 0.253 | 0.196 | 0.875 | 0.985 | 0.78 | 0.735 | 0.935 | 0.925 | 0.28 | 0.173 | 0.134 | 0.329
HOP-62 | 1.19 | 1.24 | 0.929 | 1.15 | 1.19 | 0.87 | 0.938 | 0.846 | 0.633 | 1.34 | 0.974 | 0.708 | 0.977 | 0.942 | 0.957 | 0.152 | 0.121 | 0.104 | 0.528
NCI-H2405 | 1.24 | 1.11 | 0.969 | 1.02 | 1.39 | 0.633 | 0.661 | 0.701 | 0.604 | 0.455 | 0.647 | 0.686 | 0.752 | 0.754 | 0.132 | 0.0985 | 0.0939 | 0.0834 | 0.061
LXF-289 | 0.956 | 0.972 | 0.87 | 0.919 | 0.941 | 0.808 | 0.612 | 0.356 | 0.258 | 0.821 | 0.847 | 0.58 | 0.715 | 0.611 | 0.944 | 0.263 | 0.0806 | 0.14 | –

From the supplement of paper PMC10307832
